Test results reported in US20110229411A1, “USE OF P2X7 PATHWAY FOR ASSESSING THE SENSITIVITY OF A SUBJECT TO A CANCER TREATMENT” (INSTITUT GUSTAVE ROUSSY, priority 2008, published 2011).

Columns and labels:
CT26 colon cancer cells = assay: ATP assays on doxorubicin-treated tumor cells; assay type: cell-based, mouse; details: CT26, doxorubicin 20 μM
Description: (§1) FIG. 3: Identification of AT P release as a limiting factor of anti-cancer vaccination by dying CT 26 cells. FIG. 3a-b Idem as in FIGS. 1a and b, but using the mouse colon cancer CT26 exposed to doxorubicin. Data of one representative experiment out of three are depicted. FIG. 3. c-d. […] Mice were immunized with PBS or dying CT26 tumor cells. Dying CT26 were first treated with doxorubicin for 24 hours and were then incubated with antimycin A/deoxyglucose (A/D) for 20 min. Cells were washed after A/D exposure and before subcutaneous inoculation (c). Alternatively, dying CT26 were inoculated alone or together with oxiATP (d). Seven days later, mice (15 per group in a total of 3 distinct experiments) were inoculated with live syngeneic tumor cells and tumor growth was monitored. * p<0.05.
Plates were read in a Fluostar luminometer (BMG Labtech).

CT26 cells [1] = assay: Cell death induction for vaccination, FACS analysis of Annexin V+ DAPI+ cells; assay type: cell-based, mouse; details: CT26, 20 μM doxorubicin, 24 hours
Description: Anti cancer vaccination was assessed using a previously described setting (Casares et al., 2005; Obeid et al., 2007). CT26 cells were cultured with either PBS or 20 μM doxorubicin, and MCA205 with either PBS or 1 μM mitoxantrone for 24 h. All these treatments led to ˜50% of Annexin V^+ DAPI^+ cells, as assessed by FACS analysis at 24 hours. After careful washes, cells were resuspended in sterile PBS. CT26 cells were incubated in the presence or in the absence of antimycin A and deoxyglucose (2 μg/ml and 30 mM, respectively) for 20 min, or in the presence or in the absence of Oxi-ATP ([…]). After 3 washes, 3×10^6 dying CT26 cells (or 3×10^5 MCA205 cells) were injected subcutaneously into the left flank of mice. In some experiments, 100 μg of IL-1Ra (Anakinra) was injected along with the dying cells. Seven days later, mice were rechallenged into the right flank with 5×10^5 live CT26 cells (or, alternatively, 3.10^4 live MCA205 cells). Tumor growth was then monitored weekly.

CT26 cells [2] = assay: Anti-cancer vaccination with dying CT26 cells and rechallenge with live tumor cells; assay type: in vivo, mice; details: doxorubicin-treated CT26, rechallenge with live cells seven days later
Description: as §1
Anti cancer vaccination was assessed using a previously described setting (Casares et al., 2005; Obeid et al., 2007). CT26 cells were cultured with either PBS or 20 μM doxorubicin, and MCA205 with either PBS or 1 μM mitoxantrone for 24 h. All these treatments led to ˜50% of Annexin V^+ DAPI^+ cells, as assessed by FACS analysis at 24 hours. After careful washes, cells were resuspended in sterile PBS. […] Tumor growth was then monitored weekly.

[3] = test system: T cell priming for IFNγ production; assay: Priming assay: dying EG7 cells injected into the footpad, IFNγ secretion of restimulated popliteal lymph node cells; assay type: in vivo, mice
Description: 1.10^6 CT26, EG7, or B16F10 cells were either left untreated or treated with doxorubicin (20 μM) or oxaliplatin (5 μg/ml) for 24 h. Cells were then injected into the footpad of syngenic mice. In some experiments, 20 or 100 μg of IL-1Ra (Anakinra) or 250 ng of recombinant murine IL-1β (or 250 ng of IL-6 or 50 ng of IL-12) was injected along with dying tumor cells into the footpad of mice. Alternatively, DC were cocultured with EG7 cells for 2 hours, followed by the purification of CD11c^+ cells with anti-CD11c mAb coupled to magnetic beads (Miltenyi Biotec, Paris, France) and injection of these purified DC into the footpad. Five days later, gangliocytes from popliteal lymph nodes were harvested, seeded in 96 U-well plates (3.10^5 cells per well), and restimulated with 1 mg/ml OVA protein. Restimulation with MCA205 or CT26 cells was performed using 3×10^4 tumor cells killed by 5 min heating at 42° C. followed by 1 cycle of freezing/thawing in liquid nitrogen. For B16F10, restimulation was achieved using gp100 peptide as previously described (Overwijk et al., 1998). As a positive control of T cell priming, mice were injected with OVA protein (1 mg) (or gp100 for B16F10) and the association of CpG (10 μg) and Poly I:C (5 μg). For CT26 priming experiments, cell lysate plus LPS (250 ng) was used as a positive control. Supernatants were harvested 72 hours later, and IFNγ secretion was assessed by ELISA. Alternatively, cells were stimulated with PMA (10 ng/ml) and ionomycin (1 μg/ml) for 1 h, followed by the addition of brefeldin A (10 μg/ml for 6 h at 37° C.) (Apetoh et al., 2007), surface staining with Abs specific for CD3, CD4 or CD8, fixation and permeabilization (Cytofix/cytoperm kit) and then labeled with antibodies specific for IFNγ. Immunofluorescence was analyzed on a LSRII flow cytometer (BD Biosciences) with FACSDiva software.

[4] = test system: T cell priming for IFNγ production; assay: Priming assay with dying CT26 cells, restimulation with CT26 or MCA205 tumor lysate, IFNγ production; assay type: in vivo; details: IL-1Ra 100 μg co-inoculated, WT mice
Description: FIG. 14: The immunogenicity of cell death requires active IL-1β. Mice were immunized with PBS or dying CT26 tumor cells treated with doxorubicin or freeze thawing and LPS. Dying CT26 were co-inoculated together with IL-1Ra (100 μg) into the […] of WT mice. Five days later, mice (n=5 mice/group) were sacrificed to harvest popliteal lymph nodes for in vitro restimulation with CT26 or MCA205 tumor lysate and assessment of IFNγ production. *p<0.05.
1.10^6 CT26, EG7, or B16F10 cells were either left untreated or treated with doxorubicin (20 μM) or oxaliplatin (5 μg/ml) for 24 h. Cells were then injected into the footpad of syngenic mice. In some experiments, 20 or 100 μg of IL-1Ra (Anakinra) or 250 ng of recombinant murine IL-1β (or 250 ng of IL-6 or 50 ng of IL-12) was injected along with dying tumor cells into the footpad of mice. Alternatively, DC were cocultured with EG7 cells for 2 hours, followed by the purification of CD11c^+ cells with anti-CD11c mAb coupled to magnetic beads (Miltenyi Biotec, Paris, France) and injection of these purified DC into the footpad. […] Supernatants were harvested 72 hours later, and IFNγ secretion was assessed by ELISA. […] Immunofluorescence was analyzed on a LSRII flow cytometer (BD Biosciences) with FACSDiva software.

EL4 thymoma tumors = assay: Chemotherapy of EL4 tumors established in mice; assay type: in vivo; details: co-treatment, data not shown
Description: (§2) FIG. 17. The anti-cancer activity of oxaliplatin depends on P2X7 and the NALP3 inflammasome. FIG. 17a,b,c. Therapeutic efficacy of oxaliplatin on established tumors depends on the integrity of the immune system on the P2X7/NALP3/casp-1 axis. EL4 thymoma tumors were established in syngenic mice bearing the indicated genotypes (a-c) or injected with anti-CD8 antibody (a). When the tumor reached 70-90mm^2 in size, mice were either left untreated or were treated with oxaliplatin. Each treatment group included 5-6 mice (X±SEM), and each experiment was repeated three times with similar results. * p<0.05. d. Caspase 1 is required for the immune response promoted by oxaliplatin chemotherapy. EG7 tumors established in the thigh were treated with one systemic injection of oxaliplatin. Inguinal lymph node cells were harvested 5 days later, and the gangliocytes were restimulated in vitro. IFNγ secretion was assessed by ELISA. Results (means of triplicates ±SEM, n=3) are representative of one typical experiment out of three. ^*P<0.01. FIG. 17d. The efficacy of anthracyclines against established colon cancer is dependent on IL-1β. CT26 tumors established for 10 days in WT mice were treated with one local injection of doxorubicin in the absence or presence of neutralizing anti-IL-1β Ab (n=10/group, *p<0.05). FIG. 17e. A single-nucleotide polymorphism (SNP) in P2X7 (rs3751143) affects the long-term efficacy of conventional anti-cancer therapy in breast cancer patients. Comparative Kaplan-Meier estimates of time to metastasis in two groups of patients bearing the normal (Glu496Glu) or loss-of-function (Glu496Ala) P2X7 alleles. The time to metastatic progression was analyzed in 225 women with non-metastatic breast cancer who received adjuvant chemotherapy with anthracylines.
Wild type or loss-of-function C57BL/6 mice were injected s.c. with 10^6 EL4 cells into the right flank. Alternatively, wild-type BALB/c mice were injected with 5.10^5 CT26 cells into the right flank. Mice were then randomly assigned to treatment groups of 4-6 mice each. The tumor surface was monitored using a caliper. When tumor size reached 70-90 mm^2 for EL4 (9-12 days post-injection) or 60-80 mm^2 for CT26 (8-10 days post-injection), mice received chemotherapy (Apetoh et al., 2007). Mice bearing EL4 tumors were injected with oxaliplatin (5 mg/kg i.p), while mice bearing CT26 tumors were injected with doxorubicin (50 μl, 4 mM i.t). In some experiments, CT26 tumor-bearing mice received two injections (on day 0 and day 2 after the commencement of chemotherapeutic treatment) of IL-1Ra (McIntyre et al., 1991) (100 μg), anti-IL-1 antibody (100 μg) or hamster serum as a control.

CT26 tumors = assay: Chemotherapy of CT26 tumors established in mice; assay type: in vivo; details: doxorubicin i.t.; 100 μg on day 0 and day 2, WT mice
Description: as §2, with “The efficacy of anthracyclines against established colon cancer is dependent on IL-1β. CT26 tumors established for 10 days in WT mice were treated with one local injection of doxorubicin in the absence or presence of neutralizing anti-IL-1β Ab (n=10/group, *p<0.05). FIG. 17e. A single-nucleotide polymorphism (SNP) in P2X7 (rs3751143) affects the long-term efficacy of conventional anti-cancer therapy in breast cancer patients. Comparative Kaplan-Meier estimates of time to metastasis in two groups of patients bearing the normal (Glu496Glu) or loss-of-function (Glu496Ala) P2X7 alleles.” left out
Wild type or loss-of-function C57BL/6 mice were injected s.c. with 10^6 EL4 cells into the right flank. […] The tumor surface was monitored using a caliper. […]

CD3+ CD8+ T cells = assay: In vitro stimulation of CD8+ T-cells with anti-CD3 and anti-CD28 mAb plus cytokines; assay type: cell-based, mouse; details: CD3 plus CD28 cross-linking; 10 ng/ml IL-12p70, 100 ng/ml IL-1β, IL-6, TNFα
Description: (§3) FIG. 15. IL-1β-dependent CTL priming by dying tumor cells in vitro and in vivo. FIG. 15a. MyD88 is required at the level of the host but not that of the APC. DC from WT mice were first loaded with antigen (OVA holoprotein with C/P adjuvant, live or oxaliplatin-treated EG7 cells) and then injected into the footpad of into WT or MyD88^−/− recipients (n=6 mice/group). Five days later, the local immune response was measured as in FIG. 2d,e. Results of one typical experiment out of three are depicted. FIG. 15b. Casp-1 and IL-1β-dependent OT-I priming in vitro. The differentiation of IFNγ producing CD8^+ OT-1 cells was induced by incubating naïve OVA-specific TCR transgenic OT-1 lymphocytes with syngeneic BM-DC (derived from WT or Casp-1^−/− mice) that were loaded with oxaliplatin-treated EG7 for 2 days in vitro. […] Exogenous addition of rIL-1β (100 ng/ml) or IL-12 (10 ng/ml) to cocultures of Casp-1^−/− DC loaded with dying tumor cells and incubated with OT1 restored T cell priming. […] FIG. 15c. Specific and direct polarizing effects of IL-1β on T lymphocytes in vitro. Purified CD3^+ CD8^+ T cells derived from naïve WT mice were stimulated with anti-CD3 and anti-CD28 mAb for 5 days in the presence of the indicated cytokines (10 ng/ml for IL-12p70, 100 ng/ml for IL-1β, IL-6 and TNFα) -and IFNγ production was measured as in FIG. 3b. FIG. 15d. […]

OT-1 CD8+ T cells = assay: In vitro stimulation of OT-1 cells by BM-DC loaded with oxaliplatin-treated EG7; assay type: cell-based, mouse; details: rIL-1β 100 ng/ml or IL-12 10 ng/ml added to cocultures
Description: as §3

Molecule: COc1cccc2c1C(=O)c1c(O)c3c(c(O)c1C2=O)C[C@@](O)(C(=O)CO)C[C@@H]3O[C@H]1C[C@H](N)[C@H](O)[C@H](C)O1 [doxorubicin]
- release of ATP (CT26 colon cancer cells): released ATP
- Annexin V+ DAPI+ cells (CT26 cells [1]): ~50%

Molecule: Nc1ncnc2c1ncn2[C@@H](C=O)O[C@@H](C=O)COP(=O)(O)OP(=O)(O)OP(=O)(O)O [oxiATP, 2′,3′-dialdehyde derivative of ATP]
- efficacy of vaccination with dying tumor cells (CT26 cells [2]): prevent the efficacy of vaccination
- T cell priming triggered by OVA protein plus adjuvant ([3]; OVA with PolyI:C+CpG in presence of oxiATP): did not affect T cell priming
- T cell priming by oxaliplatin-treated EG7 cells ([3]; cells admixed with oxiATP, footpad, C57Bl/6 mice): abolished T cell priming

Molecule: IL-1Ra: recombinant IL-1 receptor antagonist, Kineret Anakinra (Amgen)
- tumor-specific IFNγ response of T cells primed by dying CT26 cells [4]: abolished
- effect on the response of EL4 tumors to oxaliplatin (EL4 thymoma tumors): blunted the response
- effect on the response of CT26 tumors to anthracyclines (CT26 tumors): blunted the response
- T cell priming in vivo by oxaliplatin-treated EG7 cells (IFNγ after restimulation with OVA) ([3]; IL-1Ra co-injected into the footpad): failed to prime T cells in vivo
- cytoplasmic IFNγ staining of CD3+CD8+ T lymphocytes ([3]; IL-1Ra co-injected, restimulation with PMA-ionomycin, flow cytometry): failed to stain positively for cytoplasmic IFNγ

B1: IL-1β: recombinant mouse IL-1β from R&D Systems (protein)
chain: VPIRQLHYRLRDEQQKSLVLSDPYELKALHLNGQNINQQVIFSMSFVQGEPSNDKIPVALGLKGKNLYLSCVMKDGTPTLQLESVDPKQYPKKKMEKRFVFNKIEVKSKVEFESAEFPNWYISTSQAEHKPVFLGNNSGQDIIDFTMESVSS
- IFNγ production by naive CD3+CD8+ splenic T cells (CD3+ CD8+ T cells): failed to produce IFNγ, unless IL-113
- T cell priming in Nalp3−/− or Casp1−/− mice ([3]; cytokine co-injected with oxaliplatin-treated EG7: rIL-1β 250 ng, rIL-12 50 ng, rIL-6 250 ng per footpad): restored deficient T cell priming
- priming capacity of Casp-1−/− DC for OT-1 cells (IFNγ) (OT-1 CD8+ T cells): restored the priming capacity
